Here are results for 21 compounds from patent US8394792B2, “Heterocyclic derivatives” (C&C Research Laboratories, priority 2008, dated 2013).

SMILES strings stand for the structures. Converted amounts (≈) assume the structure as drawn. Structures can show the parent of a compound that is named as a salt. Where two headings read alike, the source gives them in different places. Bounds are passed on as bounds.

Data set [1] deals with CYP2C9 (Homo sapiens, UniProt P11712). Nature of the data set: biochemical.
Data set [2] in a line: Test for solubility according to pH. The class given is physicochemical. The note with it: thermodynamic from solid, 37° C. 2 hours.
Description: 2.0 g of sodium chloride was dissolved in 7.0 mL of hydrochloric acid and water to make the total volume of 1000 mL. This solution was colorless and clear. Its pH was about 1.2.
To 250 mL of 0.2 mol/L potassium dihydrogen phosphate solution, 118 mL of 0.2 mol/L sodium hydroxide solution and water were added to make the total volume of 1000 mL. This solution was colorless and clear. Its pH was about 6.8.
For the compounds of present invention prepared in the examples, the test samples were prepared in each of the first and second solutions with 2 mg/mL concentration. This test sample solution was agitated for 10 seconds, sonicated for 1 minute and heated at 37° C. for 2 hours. The heated test sample solution was filtered to remove undissolved compounds therein. From filtered solution, 100 μl of the completely dissolved solution was sampled and 100 μl of acetonitrile was added thereto to make test sample solution. For each analysis of test sample solution, the solubility was measured by using liquid chromatography.
The target in data set [3] is T1, hURAT1 (Homo sapiens, UniProt Q96S37).
T1 construct: expressed in transfected cells; host or cells: HEK293 (human kidney cell line), transient transfection with Fugene6
T1 sequence (Q96S37 1-553): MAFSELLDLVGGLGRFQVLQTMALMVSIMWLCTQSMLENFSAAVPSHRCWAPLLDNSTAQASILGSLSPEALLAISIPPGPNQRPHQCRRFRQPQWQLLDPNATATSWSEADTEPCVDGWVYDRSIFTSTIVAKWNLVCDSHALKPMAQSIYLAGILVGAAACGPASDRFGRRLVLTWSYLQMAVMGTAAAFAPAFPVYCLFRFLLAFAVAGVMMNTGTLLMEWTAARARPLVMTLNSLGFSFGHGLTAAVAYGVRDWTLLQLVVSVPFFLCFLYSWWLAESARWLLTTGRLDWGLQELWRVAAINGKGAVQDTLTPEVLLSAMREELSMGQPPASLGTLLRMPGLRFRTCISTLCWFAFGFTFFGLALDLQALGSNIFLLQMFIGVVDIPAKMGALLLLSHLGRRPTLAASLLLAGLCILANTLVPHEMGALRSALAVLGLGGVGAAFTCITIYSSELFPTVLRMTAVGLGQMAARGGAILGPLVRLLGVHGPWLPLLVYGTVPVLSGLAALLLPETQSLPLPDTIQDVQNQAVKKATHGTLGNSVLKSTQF
Briefly: Test for inhibiting urate reuptake activity via hURAT1 (uric acid transport assay in hURAT1-overexpressed HEK293 cell line). The note with it: hURAT1-overexpressed HEK293 cells, [14C]-uric acid uptake, 100 μM uric acid; read-out: IC50 (μM) hURAT, level of uric acid reuptake inhibition. The data set is classed as cell-based. The method, then:
Test for Inhibiting Urate Reuptake Activity Via hURAT1
[hURAT1 Overexpression by Transient Transfection in Human Kidney Cell Line]
A human kidney cell line, HEK293 was incubated by using OptiMEM medium in 100 mm dish at (3*10^6 cells) for 24 hours. In order for the expression of hURAT1, a transfection mixture solution (Fugene6 18 μl:hURAT1 DNA 6 μg=3:1, in 600 μl OptiMEM medium/dish) was prepared and kept for 15 minutes at room temperature. To each dish, 600 μl of the mixture solution was injected and then incubated in 37[…] cell incubator for 24 hours. The hURAT1-overexpressed HEK293 cell line was trypsinized and cells were harvested. Cells were resuspended in medium and seeded at 6*10^5 cells/well and incubated for 24 hours in 24-well plate which was surface-coated with Poly-D-Lysine.
[Uric Acid Transport Assay in hURAT1-Overexpressed HEK293 Cell Line]
For each concentration, the stock sample solution was diluted in PBS (1 μl in 800 μl of PBS) as 1.25 fold concentrated working sample solution to obtain final concentrations of 0.01, 0.1, 1 and 10 μM. The hURAT1-overexpressed cell line was washed with 1 ml of PBS. After washing, PBS was discarded and the sample solution was diluted by 1.25 fold with PBS. Preincubation of cells with 200 μl/well of sample solution made above was conducted for 30 minutes in 37[…] cell incubator. After the incubation, each well was treated with 50 μl of PBS containing 500 μM [^14C]-uric acid (final 100 μM of uric acid/well). Cells were incubated for 2 minutes. The cells were washed twice with 1 ml of PBS.
To measure the uric acid uptake, each well was treated with 150 μl of M-per buffer (PIERCE) and kept in 37° C. cell incubator for 30 minutes to make cell lysates. 150 μl of cell lysates was transferred into test tube and 4 ml of scintillation cocktail was added. CPM value of [^14C]-uric acid absorbed into cells was detected using liquid scintillation counter. IC50 for the inhibition of uric acid uptake by each test sample was analyzed by computational numerical processing.

Setting [4] is: 37 °C, pH 1.2, simulated gastric fluid, first solution pH about 1.2, 2 mg/mL, read-out: Solubility (μg/mL) pH 1.2.
Where [5] appears, read: 37 °C, pH 6.8, aqueous buffer, second solution pH about 6.8, 2 mg/mL, read-out: Solubility (μg/mL) pH 6.8.

Sequence of CYP2C9 (P11712 whole entry): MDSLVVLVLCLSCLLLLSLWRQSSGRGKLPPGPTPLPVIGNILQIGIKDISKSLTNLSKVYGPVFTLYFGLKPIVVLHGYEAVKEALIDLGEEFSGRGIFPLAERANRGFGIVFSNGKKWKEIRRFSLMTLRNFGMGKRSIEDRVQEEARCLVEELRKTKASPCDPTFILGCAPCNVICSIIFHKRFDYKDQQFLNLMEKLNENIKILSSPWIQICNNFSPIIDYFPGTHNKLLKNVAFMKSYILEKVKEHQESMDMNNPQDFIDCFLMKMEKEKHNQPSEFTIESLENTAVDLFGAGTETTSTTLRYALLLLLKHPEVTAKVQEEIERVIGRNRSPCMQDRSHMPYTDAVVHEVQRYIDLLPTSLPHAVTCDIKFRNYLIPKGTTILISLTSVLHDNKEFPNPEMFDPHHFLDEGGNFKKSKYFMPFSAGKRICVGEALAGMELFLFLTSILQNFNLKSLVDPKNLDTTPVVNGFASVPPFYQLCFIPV

One may read the IC50 as the midpoint of a concentration-inhibition curve. `Br.O=C(c1cc(Cl)c(O)c(Cl)c1)N1CCOc2ccncc21` [Compound 13, (3,5-dichloro-4-hydroxy-phenyl)-(2,3-dihydro-pyrido[4,3-b][1,4]oxazin-4-yl)-methanone bromic acid salt]: the figures for the IC50 in data set [1] and in data set [3] were more than 60 µM and 0.337 µM, respectively. Besides, the solubility at 2 h in data set [2] (pH 1.2, simulated gastric fluid, first solution pH about 1.2, 2 mg/mL, read-out: Solubility (μg/mL) pH 1.2) is 1400 µg/mL; in data set [2] (pH 6.8, aqueous buffer, second solution pH about 6.8, 2 mg/mL, read-out: Solubility (μg/mL) pH 6.8) it was 847 µg/mL.
Consider `O=C(c1cc(Cl)c(O)c([N+](=O)[O-])c1)N1CCOc2ccncc21` [Compound 14, (3-chloro-4-hydroxy-5-nitro-phenyl)-(2,3-dihydro-pyrido[4,3-b][1,4]oxazin-4-yl)-methanone], for which the IC50 in data set [1] is 16.6 µM; in data set [3] it was 0.126 µM. For the same compound, the solubility at 2 h is 1480 µg/mL (≈ 4410 µM) in data set [2] (setting [4]) and 747 µg/mL (≈ 2230 µM) in data set [2] (setting [5]).
For `N#Cc1cnc2c(c1)N(C(=O)c1cc(Br)c(O)c(Br)c1)CCO2` [Compound 47-2, 1-(3,5-dibromo-4-hydroxy-benzoyl)-2,3-dihydro-1H-pyrido[2,3-b][1,4]oxazin-7-carbonitrile], the IC50 is more than 20 µM in data set [1] and 0.0179 µM in data set [3]. Besides, the solubility at 2 h in data set [2] (setting [4]) is 6.4 µg/mL (≈ 14.6 µM); in data set [2] (setting [5]) it was 330 µg/mL (≈ 751 µM).
On to `O=C(c1cc(Br)c(O)c(Br)c1)N1CCOc2ccnc(Cl)c21` [Compound 30, (5-chloro-2,3-dihydro-pyrido[4,3-b][1,4]oxazin-4-yl)-(3,5-dibromo-4-hydroxy-phenyl)-methanone], for which the IC50 in data set [1] was more than 40 µM; in data set [3] it was 0.028 µM. Also, the solubility at 2 h in data set [2] (setting [4]) was 7.2 µg/mL (≈ 16.1 µM); in data set [2] (setting [5]) it was 332 µg/mL (≈ 740 µM).
As for `O=C(c1ccc(O)c(Cl)c1)N1CCOc2ccncc21` [Compound 37, (3-chloro-4-hydroxy-phenyl)-(2,3-dihydro-pyrido[4,3-b][1,4]oxazin-4-yl)-methanone], the IC50 is more than 20 µM in data set [1] and 0.212 µM in data set [3]. For the same compound, the solubility at 2 h in data set [2] (setting [4]) is 1930 µg/mL (≈ 6640 µM); in data set [2] (setting [5]), 114 µg/mL (≈ 393 µM).
The matching figures for `O=C(c1cc(Cl)c(O)c([N+](=O)[O-])c1)N1CCOc2cnccc21` [Compound 36, (3-chloro-4-hydroxy-5-nitro-phenyl)-(2,3-dihydro-pyrido[3,4-b][1,4]oxazin-1-yl)-methanone]: 1.93 µM, 0.175 µM, 1560 µg/mL (≈ 4650 µM) and 743 µg/mL (≈ 2210 µM).
As to `O=C(c1cc(Cl)c(O)c(Cl)c1)N1CCOc2ccncc21` [Compound 39, (3,5-dichloro-4-hydroxy-phenyl)-(2,3-dihydro-pyrido[4,3-b][1,4]oxazin-4-yl)-methanone], the IC50 in data set [1] was more than 20 µM; in data set [3], 0.0884 µM. For the same compound, the solubility at 2 h in data set [2] (setting [4]) is 1340 µg/mL (≈ 4120 µM); in data set [2] (setting [5]), 480 µg/mL (≈ 1480 µM).
For the compound `Br.O=C(c1cc(Cl)c(O)c([N+](=O)[O-])c1)N1CCOc2cnccc21` [Compound 17, (3-chloro-4-hydroxy-5-nitro-phenyl)-(2,3-dihydro-pyrido[3,4-b][1,4]oxazin-1-yl)-methanone bromic acid salt], the solubility at 2 h in data set [2] (setting [4]) was 1610 µg/mL; in data set [2] (setting [5]) it was 1890 µg/mL. Further, in data set [3], the 50% inhibitory concentration (IC50) stood at 1 µM.
For the compound `O=C(c1cc(Br)c(O)c(Br)c1)N1CCOc2ncc(-c3cccnc3)cc21` [Compound 52, (3,5-dibromo-4-hydroxy-phenyl)-(7-pyridin-3-yl-2,3-dihydro-pyrido[2,3-b][1,4]oxazin-1-yl]-methanone], the half-maximal inhibitory concentration (IC50) in data set [1] is more than 20 µM; in data set [3], 0.0103 µM.
For `COc1c(Br)cc(C(=O)N2CCOc3ncc(C)cc32)cc1Br` [Compound 27-1, (3,5-dibromo-4-methoxy-phenyl)-(7-methyl-2,3-dihydro-pyrido[2,3-b][1,4]oxazin-1-yl)-methanone], the half-maximal inhibitory concentration (IC50) in data set [1] is more than 20 µM; in data set [3], 0.036 µM.
The matching figures for `O=C(c1cc(Br)c(O)c(Br)c1)N1CCOc2ncc(-c3ccccc3)cc21` [Compound 20, (3,5-dibromo-4-hydroxy-phenyl)-(7-phenyl-2,3-dihydro-pyrido[2,3-b][1,4]oxazin-1-yl)-methanone]: 5.2 µM and 0.034 µM.
For the compound `O=C(c1ccc(O)c(C(F)(F)F)c1)N1CCOc2cnccc21` [Compound 19, (2,3-dihydro-pyrido[3,4-b][1,4]oxazin-1-yl)-(4-hydroxy-3-trifluoromethyl-phenyl)-methanone], the results for the IC50 in data set [1] and in data set [3] were 6.8 µM and 0.269 µM, respectively.
As for `O=C(c1ccc(O)c(Br)c1)N1CCOc2ccncc21` [Compound 38, (3-bromo-4-hydroxy-phenyl)-(2,3-dihydro-pyrido[4,3-b][1,4]oxazin-4-yl)-methanone], the IC50 in data set [1] was more than 20 µM; in data set [3] it was 0.0964 µM.
As for `O=C(c1cc(Br)c(O)c(Br)c1)N1CCOc2cnccc21` [Compound 6, (3,5-dibromo-4-hydroxy-phenyl)-(2,3-dihydro-pyrido[3,4-b][1,4]oxazin-1-yl)-methanone], the half-inhibitory concentration (IC50) stood at 3.05 µM in data set [1] and 0.0565 µM in data set [3].
Taken in the same sequence, the figures for `Cc1cnc2c(c1)N(C(=O)c1ccc(O)c(C(F)(F)F)c1)CCO2` [Compound 69, (4-hydroxy-3-trifluoromethyl-phenyl)-(7-methyl-2,3-dihydro-pyrido[2,3-b][1,4]oxazin-1-yl)-methanone] were more than 20 µM and 0.0331 µM.
In the case of `O=C(c1cc(Br)c(O)c(Br)c1)N1CCOc2c1cnc1ccccc21` [Compound 55, (3,5-dibromo-4-hydroxy-phenyl)-(2,3-dihydro-4-oxa-1,9-diaza-phenanthren-1-yl)-methanone], the figures for the 50% inhibitory concentration (IC50) in data set [1] and in data set [3] were 8.87 µM and 0.0488 µM, respectively.
In the case of `COc1c(Br)cc(C(=O)N2CCOc3nc(C)ccc32)cc1Br` [Compound 58, (3,5-dibromo-4-methoxy-phenyl)-(6-methyl-2,3-dihydro-pyrido[2,3-b][1,4]oxazin-1-yl)-methanone], the IC50 in data set [1] was more than 20 µM; in data set [3], 0.742 µM.
For the compound `COc1cncc(-c2cnc3c(c2)N(C(=O)c2cc(Br)c(O)c(Br)c2)CCO3)c1` [Compound 68, (3,5-dibromo-4-hydroxy-phenyl)-[7-(5-methoxy-pyridin-3-yl)-2,3-dihydro-pyrido[2,3-b][1,4]oxazin-1-yl]-methanone], the half-maximal inhibitory concentration (IC50) came out at 1.39 µM in data set [1] and 0.0232 µM in data set [3].
Turning to `Oc1c(Br)cc(C(=S)N2CCOc3ccncc32)cc1Br` [Compound 51, (3,5-dibromo-4-hydroxy-phenyl)-(2,3-dihydro-pyrido[4,3-b][1,4]oxazin-4-yl)-methanethione], the IC50 in data set [1] was determined as 8.8 µM; in data set [3], 0.0115 µM.
Regarding `COc1c(Br)cc(C(=O)N2CCOc3ccncc32)cc1Br` [Compound 2, (3,5-dibromo-4-methoxy-phenyl)-(2,3-dihydro-pyrido[4,3-b][1,4]oxazin-4-yl)-methanone], the half-inhibitory concentration (IC50) in data set [1] was more than 12 µM; in data set [3], 0.136 µM.
Consider `O=C(c1ccc(O)c(Br)c1)N1CCOc2cnccc21` [Compound 16, (3-bromo-4-hydroxy-phenyl)-(2,3-dihydro-pyrido[3,4-b][1,4]oxazin-1-yl)-methanone bromic acid salt], for which the IC50 in data set [1] was found to be 3.5 µM; in data set [3] it was 0.93 µM.
